In PubChem BioAssay AID179 (DTP/NCI, 2004) one finds EC50, IC50 and outcome data, which are given here for 71 molecules.

Molecules are shown by their SMILES. “And” between values parts separate entries of the source, which are not always exact repeats. Equal entries are not always repeated. The source made the active and inactive calls.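 Rule for the calls: active = compounds giving half or more protection of infected cells from virus-caused growth loss, again on retest; inactive = the rest.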

This assay has as its system CEM cells HIV-1 protection, formazan growth assay. Briefly: NCI AIDS Antiviral Assay. Conditions: for IC50: measured here: growth of uninfected CEM cells. The method, boiled down: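 Five concentrations of each compound were applied to infected and uninfected human CEM cells. Protection from HIV-1 was judged from growth measured with a soluble formazan assay.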

Turning to `CC(=O)C1C(=O)C(C(C)=O)C2C3C=CC(C3)C12` (stereo not drawn), the EC50 (usually the concentration at which the effect is half-maximal) is greater than 200 µM and the IC50 (usually the midpoint of a concentration-inhibition curve) was determined as 74.1 µM.

`c1ccc(SCN2CCN(CSc3ccccc3)CC2)cc1`: the EC50 is greater than 30.2 µM and the IC50 amounted to 5.75 µM.

In the case of `Cc1ccc2nc3n(c2c1)C(c1c(F)cccc1F)SC3` (stereo not drawn), the EC50 was 26.9 µM and the half-maximal inhibitory concentration (IC50) was determined as 45.7 µM.

Regarding `C=CCNC(=S)N/C=C(\c1ccccc1)S(=O)Cc1ccccc1` (stereo not drawn), the EC50 was greater than 200 µM and the IC50 was greater than 200 µM.

For `O=C1CCCN1C(=O)CS(=O)(=O)c1ccccc1`, the EC50 is greater than 200 µM and the IC50 was greater than 200 µM.

On to `O=C1C2C3C=C4c5ccccc5N(c5ccccc5)C4(C2C(=O)N1c1ccc([N+](=O)[O-])cc1)[C@H]1C(=O)N(c2ccc([N+](=O)[O-])cc2)C(=O)[C@@H]31` (stereo partly drawn), for which the EC50 is greater than 11 µM and the IC50 was greater than 11 µM.

As for `COc1cccc(-c2nc(-c3cnccn3)n(COCCO)n2)c1`, the EC50 is greater than 200 µM and the 50% inhibitory concentration (IC50) was greater than 200 µM.

As for `CC(C)[C@@H]1CC[C@]2(COC(=O)CC(C)(C)CC(=O)O)CC[C@]3(C)[C@H](CC[C@@H]4[C@@]5(C)CC[C@H](OC(=O)CC(C)(C)CC(=O)O)C(C)(C)[C@@H]5CC[C@]43C)[C@@H]12`, the EC50 is greater than 200 µM and the IC50 amounted to 9.77 µM.

For the molecule `CC(C)SC1CC2C(CC1(C)O)C2(C)C` (stereo not drawn), the EC50 is greater than 200 µM; the IC50 is > 200 µM and 91.2 µM.

Turning to `Cc1cn(C2CC(O)C(COC(=O)CCCCCCCCCCCBr)O2)c(=O)[nH]c1=O` (stereo not drawn), the EC50 was 29.5 µM and the IC50 came out at 51.3 µM.

As for `O=C(OCCN1CCCCCC1)C(c1ccsc1)C1CCCCC1` (stereo not drawn), the EC50 is greater than 200 µM and the IC50 came to 35.5 µM.

As to `CN(C)c1ccc(/C=C(\C#N)c2ccc(Cl)cc2)c(Cl)c1`, the EC50 was greater than 50.1 µM and the IC50 was determined as 4.9 µM.

Take `CC[N+]1(C)CSC(=S)N(C)C1` (stereo not drawn): the EC50 was greater than 200 µM and the IC50 was 75.9 µM.

For the molecule `CCOC(=O)C(NNc1ccccc1)C(c1ccccc1)[P+](c1ccccc1)(c1ccccc1)c1ccccc1` (stereo not drawn), the EC50 is greater than 200 µM and the IC50 was found to be 3.63 µM.

For `CCCCCCCN=c1ssc(=O)n1CCCCCCC`, the EC50 is greater than 200 µM and the IC50 was 8.91 µM.

For `O=C1C(Cl)N(c2cccc(Cl)c2)C1c1c[nH]c2ccccc12` (stereo not drawn), the EC50 is greater than 282 µM and the IC50 stood at 102 µM.

With `COCC12CC(CC1=O)C1C2ON2c3ccccc3C(=O)C12c1ccccc1` (stereo not drawn), the EC50 is greater than 50.1 µM and the IC50 is greater than 50.1 µM.

For the molecule `O=C(/C(=C/c1ccccc1)c1ccccc1)N1c2ccccc2CC1c1c[nH]c2ccccc12` (stereo not drawn), the EC50 is 0.38 µM and the IC50 was found to be 8.51 µM.

In the case of `CC1=C(c2cc(C(=O)Nc3ccc(Cl)cc3)nc(=S)[nH]2)Sc2ccccc2N1`, the EC50 was greater than 85.1 µM and the IC50 was greater than 85.1 µM.

Turning to `CC1CC(C)(C)NCCNC(C)CC(C)(C)NCCN1` (stereo not drawn), the EC50 is 195 µM and the IC50 is greater than 200 µM.

Consider `CCOC(=O)c1cnc2c(ccc3ncccc32)c1NCCCN(CC)CC`, for which the EC50 is greater than 69.2 µM and the IC50 stood at 9.55 µM.

In the case of `COc1cc2cc(C(=O)N3CC(CCl)c4c3cc(N)c3ccccc43)[nH]c2c(OC)c1OC` (stereo not drawn), the EC50 was greater than 0.2 µM and the IC50 was found to be 0.000832 µM.

For the molecule `c1ccc(C2=NCCN2)c(C2=NCCN2)c1`, the EC50 is greater than 200 µM and the concentration for half-maximal inhibition (IC50) was greater than 200 µM.

Turning to `C[N+](C)(CCCCCC[N+](C)(C)CC(=O)O)CC(=O)O`, the EC50 was greater than 550 µM and the IC50 was greater than 550 µM.

Regarding `Cn1nc(-c2ccccc2)c(C(=O)/C=C/c2ccc(F)cc2)c(N2CCOCC2)c1=O`, the EC50 was greater than 87.1 µM and the IC50 is greater than 87.1 µM.

On to `Cc1cc(S(=O)(=O)O)ccc1N=Nc1ccc(N=Nc2cc(S(=O)(=O)O)c3ccccc3c2O)c(C)c1`, for which the EC50 was greater than 100 µM and the half-inhibitory concentration (IC50) is greater than 100 µM.

As to `O=c1[nH]c(=O)n(C2CCC(COP(=O)(O)O)O2)cc1Cc1ccccc1` (stereo not drawn), the EC50 was greater than 468 µM and the half-maximal inhibitory concentration (IC50) was greater than 468 µM.

As to `N#Cc1nn(C(N)=O)c(N)c1C#N`, the EC50 was greater than 200 µM and the half-inhibitory concentration (IC50) is greater than 200 µM.

With `CCCCCCCCCCCc1c(O)c(O)cc2nc3ccc(Sc4ccccc4)cc3nc12`, the EC50 is greater than 15.1 µM and the IC50 worked out at 4.57 µM.

For the molecule `COc1ccc(/C(=N\NC(=O)NN)C(c2ccc(OC)cc2)C2(O)C(=O)Nc3c(Cl)cc(Cl)cc32)cc1` (stereo not drawn), the EC50 was greater than 9.55 µM and the IC50 was greater than 9.55 µM.

Regarding `C=C(CCC(=O)N(CCc1c[nH]c2ccccc12)C(=O)c1ccccc1CSCC)C(=O)OC`, the EC50 was greater than 200 µM and the IC50 is 15.1 µM.

As for `C=C(C)C(O)C(O)c1c(OC)ccc2ccc(=O)oc12` (stereo not drawn), the EC50 was greater than 174 µM and the IC50 is greater than 174 µM.

For `O=C1c2ccccc2NC(=O)C2C1C(c1ccccc1)CC2(O)c1ccccc1` (stereo not drawn), the EC50 was greater than 200 µM and the IC50 was 33.1 µM.

Regarding `O=C(CCCN1CCC2(CC1)CC(=O)N(N1CCCCCC1)C2=O)c1ccccc1`, the EC50 was greater than 200 µM and the IC50 came to 182 µM.

On to `O=C1CCC2(c3ccc(Cl)cc3)Nc3ccccc3N12` (stereo not drawn), for which the result was inactive.

As for `Cn1c2c(c3ccccc31)CCN=C2C1CCCOC1=O` (stereo not drawn), the EC50 is greater than 200 µM and the IC50 is greater than 200 µM.

`O=c1oc2c(ccc3occc32)c(N2CCCCC2)c1-c1ccccc1`: the result was inactive.

`CCC1(O)CCCC2C3CCC4CC(=O)CCC4(C)C3C(=O)CC21C` (stereo not drawn): the EC50 was greater than 200 µM and the IC50 worked out at 105 µM.

`COc1ccc(/C=C2\CCC(C)C3C2=NN(c2ccccc2)C3c2ccc(OC)c(OC)c2)cc1OC` (stereo not drawn): the EC50 was greater than 200 µM and the IC50 is 5.01 µM.

With `O=C(/C=C(\O)C(=O)O)/C=C(\O)c1ccccc1`, the EC50 is greater than 200 µM and the IC50 is greater than 200 µM.

Take `[O-]c1c(-c2cccc3ccccc23)sc(-c2cccc3ccccc23)[n+]1-c1ccccc1`: the outcome was inactive.

In the case of `O=[N+]([O-])c1ccccc1OS(=O)(=O)c1ccccc1`, the outcome was inactive.

For the molecule `CCOC(=O)C1=c2[nH]c(O)c(C(=O)OCC)c2=NC1=O`, the EC50 was greater than 5.13 µM and the 50% inhibitory concentration (IC50) was greater than 5.13 µM.

With `NC1=C(Br)C(=O)c2ncccc2C1=O`, the result was inactive.

`O=S1(=O)c2ccccc2NC(c2ccc3ccccc3c2)CC1c1ccccc1F` (stereo not drawn): the EC50 is greater than 6.46 µM and the IC50 is greater than 6.46 µM.

`Cc1ccc(S(=O)(=O)/C(C#N)=C/NC(=S)Nc2ccc(C)cc2C)cc1`: the result was inactive.

As to `CC1=C(c2cc(C(=O)Nc3cccc(Cl)c3)nc(NC#N)n2)Sc2ccccc2N1`, the outcome was inactive.

As for `O=C1N[C@H]2CCCC[C@@H]2C(=O)N1OS(=O)(=O)c1ccccc1`, the EC50 was greater than 200 µM and the IC50 was greater than 200 µM.

For `O=C1OCC=C1COC1OC(CO)C(O)C(O)C1O` (stereo not drawn), the EC50 is greater than 200 µM and the IC50 came out at 77.6 µM.

Take `CC12CCCCC1(C)C2Sc1ccccc1` (stereo not drawn): the result was inactive.

As to `C=CCNc1nc2c(s1)c(C)c(O)c1ccccc12`, the EC50 is greater than 200 µM and the IC50 amounted to 3.55 µM.

Regarding `Cc1cc(-c2no[n+]([O-])c2-c2cc(C)sc2S(C)(=O)=O)c(S(C)(=O)=O)s1`, the EC50 was greater than 200 µM and the IC50 is greater than 200 µM.

On to `CC(C)(C)C(=O)OCOP(=O)(OCOC(=O)C(C)(C)C)OCC1OC(n2cc(F)c(=O)[nH]c2=O)CC1O` (stereo not drawn), for which the EC50 is greater than 151 µM and the 50% inhibitory concentration (IC50) was 2.09 µM.

`C=CCCCN1CCCCC1=S`: the EC50 was greater than 251 µM and the IC50 was greater than 251 µM.

`CCOC(=O)c1c(-c2ccc(Cl)cc2)c(C#N)c(=S)n(C2OC(COC(C)=O)C(OC(C)=O)C(OC(C)=O)C2OC(C)=O)c1-c1ccccc1` (stereo not drawn): the EC50 is greater than 200 µM and the IC50 is 77.6 µM.

Turning to `CC(C)(N)C(=O)N[C@@H]1C(=O)N2[C@@H]1SC(C)(C)[C@@H]2C(=O)O`, the EC50 was greater than 200 µM and the concentration for half-maximal inhibition (IC50) is greater than 200 µM.

In the case of `COc1ccc(N=C2C(=Nc3ccc(OC)cc3)N(c3ccc(N(C)C)cc3)C(=S)N2c2ccc(OC)cc2)cc1`, the EC50 was greater than 20 µM and the IC50 was 0.692 µM.

Turning to `S=c1[nH]nc2n1NC(c1ccccc1)=NN2`, the EC50 was greater than 295 µM and the IC50 was greater than 295 µM.

With `COc1ccccc1/C=C1\Sc2scc(-c3ccc(O)c(O)c3)[n+]2C1=O`, the EC50 was greater than 200 µM and the 50% inhibitory concentration (IC50) was 3.89 µM.

`Cc1cc(C(=O)O)c(C)cc1SSc1cc(C)c(C(=O)O)cc1C`: the EC50 was greater than 105 µM and the IC50 amounted to 75.9 µM.

As for `CCOC(=O)C1=C(C)NC2=C(C(=O)N(c3ccccc3)C2c2ccccc2)C1c1ccccc1` (stereo not drawn), the EC50 is greater than 41.7 µM and the half-inhibitory concentration (IC50) was greater than 41.7 µM.

For the molecule `CCC1CCc2c(OC)ccc(OCC(=O)O)c2C1=O` (stereo not drawn), the outcome was inactive.

On to `COC1N(C2CC(F)C(CO)O2)C(=O)NC(=O)C1(C)Br` (stereo not drawn), for which the EC50 was 0.00525 µM and 0.00316 µM; the IC50 was 5.62 µM and 6.03 µM.

As for `NCC(=O)Nc1ccc(S(=O)(=O)O)c2cc(S(=O)(=O)O)cc(S(=O)(=O)O)c12`, the EC50 is greater than 200 µM and the IC50 is greater than 200 µM.

As to `COC(=O)C(NC(=O)c1ccccc1)C(c1c(O)cc(O)cc1O)P(=O)(OC)OC` (stereo not drawn), the EC50 was greater than 16.2 µM and the IC50 was greater than 16.2 µM.

For the molecule `Cc1cnc([C@H]2CCC3[C@@H]4CC=C5C[C@@H](OC(=O)CCC(=O)O)CC[C@]5(C)C4CC[C@@]32C)s1` (stereo partly drawn), the EC50 was greater than 52.5 µM and the IC50 was 50.1 µM.

In the case of `Cc1ccc(NC(=O)/C(CC(=O)c2c[n+](=O)c3ccccc3n2O)=N\NC(=O)C[n+]2ccccc2)cc1`, the EC50 is greater than 43.7 µM and the IC50 is greater than 43.7 µM.

Regarding `CC(c1cccc2ccccc12)/[N+]([O-])=C/c1ccccc1` (stereo not drawn), the EC50 is greater than 182 µM and the IC50 worked out at 162 µM.

With `NNC1=Nc2ccc(Cl)cc2C(=S)N2CSCC12` (stereo not drawn), the EC50 was greater than 200 µM and the IC50 was greater than 200 µM.

Turning to `CC(=O)NC1=C(C)C(=O)c2c(nc3n2CCC3OC(=O)c2ccccc2)C1=N` (stereo not drawn), the EC50 is greater than 200 µM and the 50% inhibitory concentration (IC50) came out at 0.912 µM.

Turning to `CCOC(=O)c1ccc(NC(=O)Nc2ncc(Cl)cc2Cl)cc1`, the EC50 is greater than 200 µM and the IC50 is greater than 200 µM.
